Experiments:
[1] = system: AGS cells; test: Live/dead cell staining of AGS cells; assay type: cell-based, human; details: 24 hours
Protocol: Live/dead cells were stained using a live/dead cell staining kit (Thermo Fisher Scientific, Rockford, IL, USA). Specifically, apoptosis was induced by processing AGS cells (2×10^5 cells/well) as a sample for 24 hours. After staining the cells for 30 minutes using the staining kit, the cells were observed using a Leica DM IRB fluorescence microscope (Wetzlar, Germany). In addition, for the colony formation assay, AGS cells were cultured at a density of 500 cells/well and then processed with the sample. Then, the cells were stained with 0.5% crystal violet (Sigma-Aldrich, St. Louis, MO, USA) for 15 minutes […], and then the stained colonies were observed and quantified using ImageJ.

[2] = system: AGS cells; test: Western blot analysis of AGS cells; assay type: cell-based, human
Protocol: Mitochondria of AGS cells were extracted using an extraction kit (Abcam, Cambridge, MA, USA). According to the instructions for using the kit, the AGS cells were washed with cold PBS and homogenized in a cold glass vortex mixer. For mitochondrial-rich supernatants, the homogenates were centrifuged at 1000 rpm for 10 minutes at 4° C. For whole protein extraction, AGS cells were processed with samples at various concentrations for 24 hours. The cells were dissolved using Pierce™ RIPA buffer (Thermo Fisher Scientific, Rockford, IL, USA) together with protease inhibitor cocktail (GenDEPOT, TX, USA). The cell-dissolved solution formed in the above manner was centrifuged at 12,000 rpm for 20 minutes. The protein was loaded into a 10% SDS-PAGE gel using a protein gel electrophoresis chamber system and transferred to a PVDF membrane (Thermo Fisher Scientific, Rockford, IL, USA). A PBST solution containing 5% skim milk was used to block the membrane at 25° C. for 1 hour. Then, the membrane was incubated overnight at 4° C. with primary antibodies. Finally, the membrane was incubated with the secondary antibodies at 25° C. for 1 hour, and a protein band was detected using West-Q Pico ECL Solution (GenDEPOT, TX, USA). The results were quantified using ImageJ software.

[3] = system: AGS cells; test: ATP fluorescence assay in AGS cells; assay type: cell-based, human
Excerpt: The ATP degree of the sample-processed AGS cells were detected according to the manufacturer's instructions by using an ATP fluorescence assay kit (Biovision, Milpitas, CA, USA).

[4] = system: AGS cells; test: LC3 immunofluorescence staining; assay type: cell-based, human
Protocol: AGS cells (1×10^5 cells) were cultured on 6-well plates and processed with samples for 24 hours. For cell fixation and permeation, 4% paraformaldehyde and 0.1% Triton X-100 were used, respectively. After blocking with 2% BSA for 1 hour, the cells were incubated with primary antibodies on LC3 for 3 hours at 25° C. Then, the cells were incubated with fluorescein isothiocyanate (FITC)-conjugated secondary antibodies (Abcam, Cambridge, MA, USA) for 30 minutes. Finally, fluorescence was captured and analyzed using the Leica fluorescence microscope and ImageJ software.

[5] = set-up: species or system mice; details: mouse, in vivo
Protocol: Male nude mice (CAnN.Cg-Foxn1-nu, 4 weeks old, 20 g to 22 g) were purchased from OrientBio (Seongnam, Republic of Korea). The mice were placed in a chamber with conditions maintained at 23° C. and 50% humidity with a period of 12 hours of light and 12 hours of darkness. All animal experiments were conducted according to the National Institutes of Health's Laboratory Animal Care and Use Guidelines (NIH Publications No. 8023, revised 1996) and the Kyung Hee University's Animal Care and Use Guidelines ([…]-441, approval data: Sep. 28, 2021). […] The control group was administered with only 0.9% of general saline during this period. Body weights and tumor volumes of the mice were measured daily in all mice during the study period. All mice were euthanized after the end of the experiments. Blood, liver, spleen, kidney, and tumor tissues were extracted and weighed. In order to obtain the protein of tumor tissue, a portion of the tissue was processed with RIPA buffer containing a protease inhibitor cocktail. Then, the expression degree of a specific protein (determined by Western blot) was determined. […] Fuji Dri-Chem analyzer (3500, Fuji Photo Film Co., Osaka, Japan) was used to measure alanine aminotransferase (ALT), aspartate aminotransferase (AST), total bilirumin (T-Bili), total protein (TP), albumin (Alb), albumin/globulin (A/G) ratio, total cholesterol (T-Chol), total triglyceride (TG), glucose (GLU), and blood urea nitrogen (BUN) values.

[6] = system: AGS xenografts; test: Tumor size in AGS-xenograft mice; assay type: in vivo
Protocol: Male nude mice (CAnN.Cg-Foxn1-nu, 4 weeks old, 20 g to 22 g) were purchased from OrientBio (Seongnam, Republic of Korea). The mice were placed in a chamber with conditions maintained at 23° C. and 50% humidity with a period of 12 hours of light and 12 hours of darkness. All animal experiments were conducted according to the National Institutes of Health's Laboratory Animal Care and Use Guidelines (NIH Publications No. 8023, revised 1996) and the Kyung Hee University's Animal Care and Use Guidelines ([…]-441, approval data: Sep. 28, 2021). […] The control group was administered with only 0.9% of general saline during this period. Body weights and tumor volumes of the mice were measured daily in all mice during the study period. All mice were euthanized after the end of the experiments. Blood, liver, spleen, kidney, and tumor tissues were extracted and weighed. In order to obtain the protein of tumor tissue, a portion of the tissue was processed with RIPA buffer containing a protease inhibitor cocktail. Then, the expression degree of a specific protein (determined by Western blot) was determined.

[7] = system: AGS cells
Protocol: AGS cells were grown in RPMI medium containing 10% FBS and 1% PS. HEK293 and RAW264.7 cells were grown in DMEM medium containing 10% FBS and 1% PS under conditions of 37° C., 5% CO2 and 95% air.
In order to evaluate toxicity to each cell, the sample was incubated in each cell (1×10^5 cells/well) cultured in the above manner for 24 hours, and then cytotoxicity to each cell was examined by using the MTT assay.

[8] = 8-paradol and CQ in combination, compared to 8-paradol solely
[9] = 8-paradol-H 8 mg/kg oral 16 days

CCCCCCCCCC(=O)CCc1ccc(O)c(OC)c1 [Purified Compound 3, 8-paradol]
cytotoxicity on AGS cells by cell morphology and live/dead cell staining [1]: strong cytotoxicity
Bcl-2 expression [2, 8]: significantly increased
expression degree of Bax, Cytochrome c and caspase-3/-9 [2, 8]: significantly decreased
conversion to LC3b and degradation of p62 ([2]; 8-paradol combined with CQ 30 μM, compared to 8-paradol solely): more strongly induces
expression of TOM20 and TIM23 ([2]; 8-paradol in combination with CQ, compared to 8-paradol solely): increased
amount of Bax, Cytochrome C and Cleaved-caspase-3/-9 ([2]; AGS cells): increased
amount of Bcl-2 ([2]; AGS cells): decreased
expression of p62 ([2]; AGS cells): degraded p62 in a dose-dependent manner
protein expression of Pink1 and Parkin ([2]; AGS cells): significantly increased
protein expression of TOM20 and TIM23 ([2]; AGS cells, compared with control group): decreased
conversion from LC3a to LC3b ([2]; AGS cells, dose- and time-dependent): promoted
Parkin concentration of the mitochondrial fraction ([2]; AGS cells, mitochondrial fraction): increased
ATP loss induced by 8-paradol ([3]; 8-paradol with CQ (inhibiting mitophagy)): reduced
ATP concentration in AGS cells ([3]; AGS cells): reduced
endogenous LC3 spots [4]: increase
harm to the liver [5]: not harmful to the liver
kidney damage [5]: did not cause kidney damage
size and weight of the tumor compared to Con-T [6, 9]: significantly reduced
size, weight, and volume of the tumor compared to the 5-FU group [6, 9]: further reduced
size of the tumor compared to Con-T ([6]; 8-paradol-M 4 mg/kg oral 16 days): significantly reduced
cytotoxicity to AGS cells [7]: killed in a concentration-dependent manner
cell viability [7, 8]: significantly improved
IC50 ([7]; read-out: IC50 on AGS cells, AGS cells, 24 hours, MTT assay): 14.9 ± 1.65 µM

Source: patent publication US20250144047A1, “PHARMACEUTICAL COMPOSITION FOR PREVENTING, AMELIORATING, OR TREATING CANCER CONTAINING 8-PARADOL” (KDBIO CORP., priority 2022, published 2025)
